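Compound exposure: 48 hours, 5 concentrations, 96-well plates. GI50 marks 50% less growth. TGI: concentration producing complete growth inhibition.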
Tests used:
Experiment in all cases: inhibition of tumour cell growth, NCI panel, 48 h
[1] = tested on: RPMI-8226 leukemia
[2] = tested on: CAKI-1 renal
[3] = tested on: NCI-H460 lung
[4] = tested on: HOP-62 NSCLC
[5] = tested on: HS 578T breast
[6] = tested on: LOX IMVI melanoma
[7] = tested on: OVCAR-8 ovarian
[8] = tested on: SF-539 CNS
[9] = tested on: K-562 leukemia
[10] = tested on: SNB-19 CNS

Row | Compound | TGI [1] | TGI [2] | TGI [3] | TGI [4] | TGI [5] | TGI [6] | TGI [7] | TGI [8] | TGI [9] | TGI [10] | GI50 [1] | GI50 [3] | GI50 [4] | GI50 [5] | GI50 [6] | GI50 [7] | GI50 [8] | GI50 [9] | GI50 [10] | GI50 [2]
1 | CC(C)(O)C1CC(=O)C(C)(C2C(O)CC3(C)C4CC=C5C(CCC(O)C5(C)C)C4(C)C(=O)CC23C)O1 (stereo not drawn) | > 100 µM | > 100 µM | > 100 µM | > 100 µM | > 100 µM | > 100 µM | > 100 µM | > 100 µM | > 100 µM | > 100 µM | – | – | – | – | – | – | – | – | – | –
2 | N#Cc1c(-c2ccc(Cl)cc2)n([O-])c2ccccc2[n+]1=O | 5.11 µM | – | 42.8 µM | 30.9 µM | 53.8 µM | 20.3 µM | 39 µM | 36 µM | 4.01 µM | 48.6 µM | 1.99 µM | 18.5 µM | 16.7 µM | 24.6 µM | 5.72 µM | 9.68 µM | 17.9 µM | 2 µM | 20.6 µM | –
3 | Cn1cc(C2=C(c3cn(CCCSC(=N)N)c4ccccc34)C(=O)NC2=O)c2ccccc21 | 10.3 µM | 23.4 µM | 7.54 µM | 7.39 µM | 9.96 µM | 5.45 µM | 11.4 µM | 5.16 µM | 6.78 µM | 8.99 µM | 4.61 µM | 3.65 µM | 2.36 µM | 1.91 µM | 1.91 µM | 4 µM | 1.9 µM | 2.67 µM | 1.4 µM | 7.68 µM
4 | O=C(CN1C(=O)c2ccccc2C1=O)NC1(C(=O)O)CCCC1 | > 100 µM | > 100 µM | – | > 100 µM | > 100 µM | > 100 µM | > 100 µM | – | > 100 µM | > 100 µM | – | – | – | – | – | – | – | – | – | –
5 | Cc1ccc(SCN2CCCCC2)cc1 (tested in a mixture with another compound) | 29.5 µM | 26.3 µM | – | 37.7 µM | 37.1 µM | 14.3 µM | > 100 µM | – | 46.3 µM | 49.9 µM | – | – | – | – | – | – | – | – | – | –
6 | Cc1ccc(S(=O)(=O)NC(CCCCN)C(=O)CCl)cc1 (stereo not drawn) | – | > 100 µM | > 100 µM | > 100 µM | > 100 µM | > 100 µM | > 100 µM | 53.6 µM | > 100 µM | > 100 µM | – | > 100 µM | 63.5 µM | 40.9 µM | 45.4 µM | > 100 µM | 22.3 µM | 38.7 µM | 47.8 µM | 37.8 µM
7 | C=CC(=O)N1CC[C@@H](Oc2nc(Nc3ccc(N4CCC(N5CCN(C)CC5)CC4)cc3)c(C(N)=O)nc2CC)C1 | > 100 µM | – | > 100 µM | – | > 100 µM | > 100 µM | > 100 µM | > 100 µM | > 100 µM | > 100 µM | > 100 µM | > 100 µM | – | > 100 µM | > 100 µM | > 100 µM | > 100 µM | > 100 µM | > 100 µM | –

Source: PubChem BioAssay (NCI)
